From patent US20250186448A1 (Mezzion Pharma Co., Ltd., priority 2021, published 2025)
“And” between values parts separate entries of the source, which are not always exact repeats. Equal entries are not always repeated. “Also recorded” adds a separate entry of the source.

What was measured:
[1] = system: adolescents with Fontan physiology; test: FUEL trial: peripheral arterial tonometry (EndoPAT), log-transformed reactive hyperemia index (lnRHI); format: in vivo, human
From the text: Pulse amplitude tonometry (PAT), a FDA-approved method for assessing vascular function, is increasingly being used as an alternative measure of endothelium-dependent dilation in response to reactive hyperemia and flow-mediated dilation (FMD). The PAT device records digital pulse wave amplitude (PWA) using fingertip plethysmography. PWA can be measured continuously during three phases: a quiet baseline period, 5-min forearm occlusion, and reactive hyperemia following cuff release. Unlike FMD, PAT testing is not dependent upon a highly skilled technician and post-test analysis is largely automated. […]
The primary outcome was the change in oxygen consumption at peak exercise (max or peak VO2) from baseline to the 26-week visit. […] Safety was monitored through adverse event reports, which were collected according to a pre-specified protocol of study coordinator outreach, and through ad hoc patient and family communication with members of the study team at each site.
Baseline clinical testing completed before drug initiation included a blood draw to measure brain-type natriuretic peptide (BNP) level, a cardiopulmonary exercise test (CPET) using a standardized cycle ergometer ramp protocol, a standardized echocardiogram, and an assessment of peripheral vascular function using peripheral arterial tonometry (PAT) measured by finger cuff (EndoPAT; Itamar Medical, Israel). […]

[2] = system: adolescents with Single Ventricle Heart Disease who underwent Fontan palliation; test: FALD study: circulating biomarkers of heart failure and liver fibrosis (HA, PIIINP, TIMP-1, BNP and others); format: in vivo, human; design: HA, Post Baseline / TIMP−1, Post Baseline: unit not given beside the values; HA, Change from Baseline / TIMP−1, Change from Baseline / BNP, Change from Baseline: unit not given here; details: Cohort U− (udenafil for 52 weeks), individual subject
From the text: As noted previously, increased liver stiffness can be secondary to hepatic congestion and/or hepatic fibrosis. […] For instance, patients with increased liver stiffness due to hepatic congestion may have increased biomarkers of heart failure (e.g., BNP, NT-proBNP). […] The relative contribution of congestion or fibrosis (as determined by biomarker profiles) to the observed level of liver stiffness may correlate with which therapeutic strategies are likely to be successful in a particular patient. Therefore, in this aim, we sought to determine which circulating biomarkers correlate with measures of liver stiffness and which correlate with a change in liver stiffness with udenafil treatment. We used both a directed approach, with an analysis of candidate biomarkers validated for other disease processes, and a non-directed approach, which identifies novel biomarkers associated with FALD. The FALD study, ClinicalTrials.gov Identifier: NCT03430583, which is incorporated herein by reference in its entirety, was an open-label extension study that integrated with the FUEL Extension Trial. […] Both the U− cohort and the U+ cohort had liver stiffness measured by ultrasound and MR elastography (where available), and ELF biomarkers analyzed, as described above. […] The Enhanced Liver Fibrosis (ELF) scores were based on the serum levels of hyaluronic acid (HA), amino-terminal propeptide of type III collagen (PIIINP), and tissue inhibitor of metalloproteinase-1 (TIMP-1). Testing was performed by the FUEL-OLE Central Laboratory using the serum samples. In accordance with prior studies, we assigned those patients with scores of <7.7 to the no-fibrosis or mild fibrosis group, 7.7-9.8 to the moderate fibrosis group, 9.8-11.3 to the severe fibrosis group, and >11.3 to the cirrhosis group.

[3] = system: adolescents with Fontan physiology; details: phase I/II study, cited from earlier work

## CCCOc1ccc(S(=O)(=O)NCCC2CCCN2C)cc1-c1nc2c(CCC)nn(C)c2c(=O)[nH]1 (stereo not shown) [Udenafil, udenafil]
[1]
  Change in lnRHI (PAT outcome), udenafil vs placebo: no difference; also recorded: did not reveal a benefit
[2]
  BNP, % Change from Baseline: −83.33% and −55.56% and −96.2963% and −33.75% and −25.17% and −20%
  BNP, Change from Baseline: −5 and −25 and −26 and −10.7 and −3.7 and −6.5 and −3
  HA, % Change from Baseline: −23.28% and −55.89% and −92.1% and −78.47% and 255.6% and 69.68%
  HA, Change from Baseline: −10.87 and −67.92 and −82.42 and −137.35 and 54.28 and 27.67 and 3.05
  PIIINP, % Change from Baseline: −52.39% and −50.4522% and 5.12% and −50.05% and −15.3% and 66.2%
  PIIINP, Change from Baseline: −19.04 and −15.62 and 0.77 and −23.08 and −2.33 and 9.99 and 1.99
  TIMP−1, % Change from Baseline: 1.424% and 1.608% and 25.82% and −5.136% and 3.739% and 19.54%
  TIMP−1, Change from Baseline: 2.3 (2×) and 39.4 and −9.8 and 6.2 and 47.1 and 56.3
[2]; Post Baseline visit (52 week)
  BNP, Post Baseline: 1 (2×) and 20 and 21 and 11 and 26 and 3
  HA, Post Baseline: 35.83 and 53.6 and 7.07 and 37.68 and 75.52 and 67.38 and 23.1
  PIIINP, Post Baseline: 17.3 and 15.34 and 15.81 and 23.03 and 12.9 and 25.08 and 27.3
  TIMP−1, Post Baseline: 163.8 and 145.3 and 192 and 181 and 172 and 288.2 and 290.4
[3]; adolescents with Fontan physiology, all tested dosing regimens
  Tolerability: demonstrated tolerability at all tested dosing regimens
[3]; 87.5 mg twice daily
  Average serum concentration, compared among dosing regimens: highest average serum concentration
  Dose limiting adverse events: not associated with dose limiting adverse events
